Assay [1] deals with T1, Leishmania amazonensis recombinant arginase (L-ARG) (Leishmania amazonensis, UniProt O96394). The assay is described as follows: Determination of Ki, Kis and mechanism of inhibition of L-ARG (Dixon and Cornish-Bowden plots). In kind it is biochemical. The note with it: for Mode of Inhibition: L-ARG; for Ki / Kis: L-arginine 25, 50, 100 mM, pH 9.5. The method, then:
All reactions were performed in 50 mM CHES buffer, pH 9.5, containing variable concentrations of the substrate L-arginine (25, 50, and 100 mM) at pH 9.5. Inhibitors were tested at three different concentrations close to the IC50. All reactions were performed in triplicate in two independent experiments. Urea was quantified according to the Berthelot method using commercial reagents as previously described. The constant Ki was determined for competitive and mixed inhibitors, and Ki’ was determined uncompetitive and mixed using a Dixon and Cornish–Bowden plots. For non-competitive inhibitors, Ki and K’i values were the same, and y = 0 was determined to obtain that value.

Assay [2] addresses T1, Leishmania amazonensis recombinant arginase (L-ARG). As to the kind of experiment: Arginase inhibition test, recombinant L-ARG (urea, Berthelot method). Details: Emax: dose or concentration left out as unconfirmed. The format is biochemical. The method, then: (§1) Recombinant L-ARG was expressed and purified as previously described. Briefly, Escherichia coli, containing arginase gene cloned in plasmid DNA, was grown in SOB (Super Optimal Broth) medium at 37 °C until it reached absorbance 0.6 at 600 nm. Then the recombinant L-ARG expression was induced with a final concentration of IPTG (isopropyl β-D-1-thiogalactopyranoside) 1 mM and MnSO4 10 mM for 3 h. The cells were harvested and lysed in 1 mL of buffer A (MOPS 100 mM, pH 7,2, NaCl 500 mM) containing PMSF (phenylmethanesulfonyl fluoride) 1 mM and 10% of CelLytic™ B. After lysis, the homogenate was centrifuged at 12,000× g for 10 min. Arginase in the supernatant was purified as previously described.
(§2) A stock solution (70 mM) was prepared in DMSO and stored at −20 °C for each compound just before the experiment. The inhibitory test was performed with 50 mM of L-arginine (pH 9.5), 50 mM CHES buffer (pH 9.5), and enzyme at 5 nM. The sample was incubated in a water bath at 37 °C for 15 min. Urea was quantified according to the Berthelot method, using commercial reagents. Briefly, the catalytic activity of the arginase reaction was stopped by transferring 2 μL of the reaction mixture into 150 μL of reagent I (20 mM phosphate buffer, pH 7, containing 60 mM Salicylate, 1 mM sodium nitroprusside, and >500 IU of urease). This mixture was incubated at 37 °C for 5 min. Next, 150 μL of reagent II (sodium hypochlorite 10 mM and NaOH 150 mM) was added, and the samples were incubated at 37 °C for 5 min. Measurement was taken at 600 nm using an Epoch 2 microplate reader (BioTek Instruments, Inc.). Two independent experiments were performed in triplicate until a coefficient of non-linear regression R^2 ≥ 0.95 was obtained. The sigmoidal model (log IC50) was used to determine IC50 and maximum effect (Emax) in GraphPad-Prism 6.01 software for Windows (San Diego, CA, USA).

Assay [3] has as its system Leishmania amazonensis recombinant arginase (L-ARG). Described as above. In kind it is biochemical. Details: Emax: dose or concentration left out as unconfirmed. The following applies: for Selective Index: L-ARG over B-ARG (bovine IC50 vs L. amazonensis IC50). How it is done: as §1, §2
For a further assay, the target named is bovine arginase (B-ARG). Details: method as in PMID 27690022. The note with it: cited from earlier work.
Assay [4] deals with L. amazonensis promastigotes. As to the kind of experiment: Promastigote growth inhibition (MTT). The format is cell-based. The note with it: Leishmania amazonensis, 78 h. The method, then: Promastigote forms of the strain MHO were inoculated initially in the concentration of 5 × 10^5 parasites/mL in M199 medium (Life Technologie, Carlsbad, CA, USA), pH 7.4, supplemented with 10% of fetal bovine serum, (50 µg/mL) streptomycin, and (100 U) penicillin at 24 °C. Cells were grown until they reached the stationary phase. After this, 998 μL of the culture at 5.0 × 10^5 cells/mL was incubated with 2 μL of the inhibitors (50 to 0.0005 mM) dissolved in DMSO to obtain final concentrations of 100 to 0.001 μM. Amphotericin B was used as a control of the cell growth inhibition, in a concentration varying from 60 to 0.0006 μM dissolved in DMSO. […] After this inhibition period, the surviving cells were washed twice with HBSS (Gibco), centrifuged at 2000× g for 10 min, and supernatant was removed. To verify the parasite viability, over the pellet of cells about 1000 µL of M199 medium content was added, with 5 mg/mL of MTT (3-(4,5-dimethylthiazol-2-yl)-2, 5-diphenyltetrazolium bromide, a tetrazole) (Sigma-Aldrich, St. Louis, MO, USA). Surviving parasites were exposed to MTT during 12 h at 34 °C in a CO2 chamber. After this period, the cells were centrifuged for 10 min at 2000× g and the supernatant was removed. Formazan crystals that were formed in the cells were dissolved with DMSO, the absorbance was read using an Epoch 2 Microplate Spectrophotometer at 600 nm.

The target in the next assay is human arginase (h-ARG). On the set-up: method as in PMID 27690022. The following applies: cited from earlier work.
Assay [5] has as its target T1, Leishmania amazonensis recombinant arginase (L-ARG). On the set-up: method as in PMID 30216691. The note with it: Table 2, unit inferred; read-out: IC50 inhibition of arginase, L. amazonensis; cited from earlier work.
[6] abbreviates: 50 mM L-arginine, pH 9.5, 37 °C, 15 min, read-out: IC50 (half inhibitory activity), L-ARG.
The mark [7] stands for this setting: Table 2, unit inferred, read-out: IC50 inhibition of arginase, L. amazonensis.
Where [8] appears, read: read-out: Emax (maximal inhibitory activity).
Where [9] appears, read: Table 2, unit inferred, read-out: IC50 inhibition of arginase, Bovine.

“And” between values parts separate entries of the source, which are not always exact repeats. Equal values may be shown once. Read-outs that look alike come from different tables or passages of the source.

As to `COc1cc(/C=C/C(=O)NCCc2ccc(O)c(O)c2)ccc1O` [Compound 12], the “Mode of Inhibition” value in assay [1] is given as “Noncompetitive”. Further, in assay [1], the inhibition constant (Ki) is 9.6 ± 0.7 µM. Moreover, the Kis in assay [1] was found to be 9.6 ± 0.7 µM. Also, the IC50 in assay [2] (setting [6]) was 6.5 ± 1.4 µM; in assay [2] (setting [7]), 6.5 ± 1.4 µM; on bovine arginase (B-ARG) (setting [9]) it was 198.7 ± 1.4 µM. Moreover, the Emax at 100 µM in assay [2] (setting [8]) came to 75 ± 2%. In addition, the “Selective Index” value in assay [3] was found to be 31.

Consider `O=C(/C=C/c1ccccc1)NCCc1ccc(O)c(O)c1` [Compound 15], for which, in assay [1], the “Mode of Inhibition” value is reported as “Mixed”, the Ki was 1.4 ± 0.2 µM and the Kis worked out at 5 ± 1 µM. Moreover, the IC50 in assay [2] (setting [7]) is 1.3 ± 0.1 µM. Moreover, the maximal effect (Emax) in assay [2] (setting [8]) was 80 ± 1%. The “Selective Index” value in assay [3] stood at 30. The half-inhibitory concentration (IC50) on bovine arginase (B-ARG) (setting [9]) is 39.3 ± 1.4 µM.

In the case of `O=C(/C=C/c1ccc(O)c(O)c1)NCCc1ccc(O)cc1` [Compound 6], in assay [1], the “Mode of Inhibition” value was “Competitive”. Moreover, the Ki in assay [1] is 4.4 ± 1.1 µM. Further, the IC50 in assay [2] (setting [6]) was 5.6 ± 0.4 µM; in assay [2] (setting [7]), 5.6 ± 0.4 µM; on bovine arginase (B-ARG) (setting [9]), 22.1 ± 1.6 µM. For the same compound, in assay [2] (setting [8]), the maximal response (Emax) at 100 µM came out at 82 ± 2%. Further, the “Selective Index” value in assay [3] was 4.

In the case of `O=C(/C=C/c1ccc(O)c(O)c1)O[C@@H]1C[C@](O)(C(=O)O)C[C@@H](O)[C@H]1O` [Chlorogenic acid, reference compound], the “Selective Index” value in assay [3] was found to be 1.3. The half-maximal inhibitory concentration (IC50) was 10.6 ± 1.6 µM at bovine arginase (B-ARG) (setting [9]) and roughly 10 µM on bovine arginase (B-ARG) (read-out: IC50, bovine arginase).

Take `O=C(/C=C/c1ccc(O)c(O)c1)NCCc1ccc(O)c(O)c1` [Compound 11]: in assay [1], the “Mode of Inhibition” value was “Uncompetitive”. For the same compound, in assay [1], the Kis amounted to 2.5 ± 0.2 µM. Further, the half-inhibitory concentration (IC50) in assay [2] (setting [6]) is 1.8 ± 0.1 µM; in assay [2] (setting [7]), 1.8 ± 0.1 µM; on bovine arginase (B-ARG) (setting [9]) it was 115 ± 1.3 µM. For the same compound, the maximum response (Emax) at 100 µM in assay [2] (setting [8]) came out at 81 ± 2%. Moreover, the “Selective Index” value in assay [3] is reported as 64.

On to `COC(=O)C(CS)NC(=O)/C=C/c1ccc(O)c(O)c1` (centres unmarked) [Compound 19], for which the “Mode of Inhibition” value in assay [1] is reported as “Mixed”. Besides, the Ki in assay [1] was determined as 6.6 ± 0.3 µM. Moreover, the Kis in assay [1] was 28 ± 4 µM. The figures for the IC50 (in assay [2] (setting [6]); in assay [2] (setting [7]); at bovine arginase (B-ARG) (setting [9])) were 9 ± 1 µM, 9 ± 1 µM and 37 ± 1.3 µM, respectively. Besides, the Emax at 100 µM in assay [2] (setting [8]) was determined as 90 ± 3%. Moreover, in assay [3], the “Selective Index” value is given as 4.

On to `O=C(/C=C/c1ccc(O)c(O)c1)NCCc1ccccc1` [CAPA, caffeic acid phenethyl amide], for which the “Mode of Inhibition” value in assay [1] is given as “Competitive”. Moreover, the inhibitory constant (Ki) in assay [1] was 3.9 ± 1 µM. For the same compound, the IC50 in assay [4] is 82.6 µM; in assay [2] (setting [6]) it was 6.9 ± 0.7 µM; in assay [2] (setting [7]), 6.9 ± 0.7 µM; at bovine arginase (B-ARG) (setting [9]), 6.9 ± 1.3 µM; at human arginase (h-ARG) it was 60.3 µM and 60 µM. Besides, the maximal effect (Emax) at 100 µM in assay [2] (setting [8]) was 79 ± 1%. Also, the “potency against L-ARG relative to human arginase” value in assay [3] (L-ARG IC50 vs human arginase IC50) came to 9 fold. For the same compound, in assay [3], the “Selective Index” value stood at 1. Further, the “mode of inhibition of bovine arginase” value in the assay on bovine arginase (B-ARG) is on record as “competitive inhibition”.

With `O=C(NCCc1ccc(O)cc1)c1ccc(O)c(O)c1` [Compound 17], the “Mode of Inhibition” value in assay [1] is recorded as “Competitive”. For the same compound, the Ki in assay [1] stood at 11.4 ± 0.7 µM. In addition, the 50% inhibitory concentration (IC50) in assay [2] (setting [6]) was 17.8 µM and 18 µM; in assay [2] (setting [7]), 18 ± 3 µM; at bovine arginase (B-ARG) (setting [9]) it was 175.3 ± 1.5 µM. Moreover, the Emax at 100 µM in assay [2] (setting [8]) was 68 ± 2%. Moreover, the “Selective Index” value in assay [3] came out at 10.

As for `COc1cc(/C=C/C(=O)NCCc2ccc(O)c(O)c2)cc(OC)c1OC` [Compound 14], the “Mode of Inhibition” value in assay [1] is recorded as “Competitive”. Further, the Ki in assay [1] was determined as 1.2 ± 0.3 µM. In addition, the half-inhibitory concentration (IC50) was 2.4 ± 0.9 µM in assay [2] (setting [6]), 2.4 ± 0.9 µM in assay [2] (setting [7]) and 193.6 ± 1.4 µM at bovine arginase (B-ARG) (setting [9]). In addition, the maximal effect (Emax) at 100 µM in assay [2] (setting [8]) is 81 ± 2%. Besides, the “Selective Index” value in assay [3] worked out at 81.

With `O=C(/C=C/c1ccc(O)cc1)NCCc1ccc(O)c(O)c1` [Compound 13], the “Mode of Inhibition” value in assay [1] is “Competitive”. The Ki in assay [1] amounted to 1.6 ± 0.2 µM. Also, the results for the IC50 (in assay [2] (setting [6]); in assay [2] (setting [7]); on bovine arginase (B-ARG) (setting [9])) were 2.5 ± 0.2 µM, 2.5 ± 0.2 µM and 170.4 ± 1.7 µM, respectively. Also, the Emax at 100 µM in assay [2] (setting [8]) is 82 ± 1%. Further, in assay [3], the “Selective Index” value worked out at 68.

Regarding `O=C(O)/C=C/c1ccc(O)c(O)c1` [Caffeic acid, reference compound], the concentration for half-maximal inhibition (IC50) in assay [5] is 1.5 ± 0.3 µM; on bovine arginase (B-ARG) (setting [9]), 86.7 ± 8 µM. Besides, the “Selective Index” value in assay [3] was found to be 58.

`COC(=O)C(Cc1ccc(O)c(O)c1)NC(=O)/C=C/c1ccc(O)c(O)c1` (centres unmarked) [Compound 18]: in assay [1], the “Mode of Inhibition” value is listed as “Mixed”, the Ki was 3.9 ± 0.4 µM and the Kis is on record as 27 ± 8 µM. For the same compound, in assay [2] (setting [6]), the IC50 was found to be 4 ± 1 µM. In assay [2] (setting [7]), the half-maximal inhibitory concentration (IC50) is 4 ± 1 µM. Further, in assay [2] (setting [8]), the Emax at 100 µM came out at 89 ± 3%. The “Selective Index” value in assay [3] was found to be 10. For the same compound, at bovine arginase (B-ARG) (setting [9]), the IC50 was 41.9 ± 1.3 µM.

Usually Ki stands for a measure of affinity in units of concentration, obtained from inhibition or displacement. A word on the IC50: it is the concentration that inhibits the measured activity by half. Usually Emax stands for the size of the effect at its maximum, as opposed to the concentration needed.

The values are drawn from publication PMC7696938, “Cinnamides Target Leishmania amazonensis Arginase Selectively” (Molecules, 2020).
